Patent US10676791B2, “Methods for predicting response to DNA repair pathway inhibitors in diffuse large B-cell lymphoma” (INSERM (INSTITUT NATIONAL DE LA SANTÉ ET DE LA RECHERCHE …, priority 2014, dated 2020)
Read-outs that look alike come from different tables or passages of the source.

How the values were obtained:
Assay type in all cases: cell-based
DLBCL cell lines = DLBCL cell lines growth inhibition (Cell Titer Glo Luminescent Assay), panel of 6 cell lines
Description: (§1) 6 DLBCL cell lines were treated by increasing doses of PARP inhibitor (PJ34 hydrochloride). DLBCL cell lines growth was quantified with a Cell Titer Glo Luminescent Assay (Promega, Madison, Wis., USA) and the 50% inhibitory concentration (IC50) was determined using GraphPad Prism software (http://www.graphpad.com/scientific-software/prism/) (FIG. 7A).

DOHH2 = test: DLBCL cell line growth inhibition (Cell Titer Glo Luminescent Assay), DOHH2; conditions: DOHH cell line (high HRR score)
Description: as §1

HT = test: DLBCL cell line growth inhibition (Cell Titer Glo Luminescent Assay), HT; conditions: read-out: PJ34 IC50
Description: as §1

U2932 = test: DLBCL cell line growth inhibition (Cell Titer Glo Luminescent Assay), U2932; conditions: read-out: PJ34 IC50
Description: as §1

OCILY1 = test: DLBCL cell line growth inhibition (Cell Titer Glo Luminescent Assay), OCILY1; conditions: read-out: PJ34 IC50
Description: as §1

OCILY3 = test: DLBCL cell line growth inhibition (Cell Titer Glo Luminescent Assay), OCILY3; conditions: read-out: PJ34 IC50
Description: as §1

OCILY7 = test: DLBCL cell line growth inhibition (Cell Titer Glo Luminescent Assay), OCILY7; conditions: OCILY7 cell line (high HRR score)
Description: as §1

**Q.** With `CN(C)CC(=O)Nc1ccc2[nH]c(=O)c3ccccc3c2c1.Cl` [PJ34, PJ34 hydrochloride] as the compound, how does the “sensitivity to PARPi” value (DLBCL cell lines; DLBCL cell lines with a high BER score, excluding the cell lines with a high HRR score) read?
**A.** sensitive

**Q.** What about the IC50 (DLBCL cell lines; DLBCL cell lines with a lower HRR score, read-out: median IC50) of the same compound?
**A.** 7.41 µM

**Q.** What about the IC50 (DLBCL cell lines; median over 6 DLBCL cell lines) of the same compound?
**A.** 7.82 µM

**Q.** And the “fold higher resistance to PARPi” value (DLBCL cell lines; two DLBCL cell lines with high HRR score compared to cell lines with a lower HRR score)?
**A.** 2 fold

**Q.** What about the IC50 (DOHH2) of the same compound?
**A.** 15.2 µM

**Q.** What about the IC50 (HT) of the same compound?
**A.** 8.08 µM

**Q.** What about the IC50 (U2932) of the same compound?
**A.** 7.2 µM

**Q.** What about the IC50 (OCILY1) of the same compound?
**A.** 7.57 µM

**Q.** And the IC50 (OCILY3)?
**A.** 7.26 µM

**Q.** And the IC50 (OCILY7)?
**A.** 14 µM
